Reference: patent US20240366495A1, “COMPOSITION FOR AMELIORATING WRINKLES USING FERMENTED EXTRACT OF CANNABIS STEM AND PREPARATION METHOD THEREOF” (KOREA INSTITUTE OF SCIENCE AND TECHNOLOGY, priority 2023, published 2024)

How the values were obtained:
[1] = system: human dermal fibroblasts (HDFs); conditions: sample 0 to 1000 μg/mL, 24 hours, MTT, FIG. 1 / FIG. 2
Description: First, the cytotoxicity of each sample was confirmed using the following method. After human dermal fibroblasts (HDFs) were cultured in a 96-well culture plate at a concentration of 1.5×10^4 cells/well for 24 hours to reach a clustering coefficient of 70 to 80%, and then the sample prepared in Example 1 was treated at a concentration of 0 to 1000 μg/mL, and cultured in an incubator (37° C., 5% CO2) for an additional 24 hours. […] The absorbance of each well was measured at 570 nm using a microplate reader.

HDFs = assay: Observation of cell morphology changes after UVB irradiation; type: cell-based, human; conditions: highest non-cytotoxic concentration, UVB 25 mJ/cm^2 after 2 hours, cultured 24 hours, FIG. 3
Description: An experiment for confirming an anti-wrinkle effect was conducted on each sample confirmed in Example 1.

O=C1O[C@H]([C@@H](O)CO)C(O)=C1O [vitamin C]
concentration at which cytotoxicity is exhibited [1]: ≥ 500 µg/mL
number of cells after UVB irradiation (HDFs): number of cells increased to the level of the untreated group
